Assays:
[1] = test system: human cord blood CD34+ cells (CD34+CD49f+ cells); assay: human cord blood CD34+ cell ex vivo culture and screen; format: cell-based; details: dose response, Fig. 4B
Protocol: Based on our study of murine HSCs, we further tested whether these p18SMIs could expand human cord blood CD34^+ cells in ex vivo culture. […] We cultured human cord blood CD34^+ cells for 7 days in HSCs expansion media in the presence of 200 nM of p18SMIs, and then analyzed the percentage and absolute number of CD34^+CD49f^+ cells by flow cytometry. We screened 40 p18SMIs, of which14 compounds could increase the number of CD34^+CD49f^+ cells compared with the control group (Fig. S6). […] Then we conducted a concentration gradient assay on top three p18SMIs with ED50 less than 10 nM (compounds 22, 40 and 41). […] Only in specific doses could they show their expansion effect on human HSCs (Fig. 4B).
Human cord blood samples were collected from consenting donors according to ethically approved procedures at Tianjin Central Hospital of Gynecology Obstetrics (Tianjin, China), under a protocol approved by the Ethical Committee on Medical Research at the Institute of Hematology. Human CD34^+ cord blood cells were isolated using human CD34 MicroBead Kit (MiltenyiBiotec) according to the manufacturer’s protocol after settling red cells with HES and red cells lysis with ACK Lysis Buffer.
Human CD34^+ cells were cultured in expansion medium consisting of StemSpan SFEM (StemCell Technologies) supplemented with 100 ng/mL human stem cell factor (SCF, PeproTech), 50 ng/mL human thrombopoietin (TPO, PeproTech), 100 ng/mL human FMS-like trysine kinase 3 ligand (Flt3L, PeproTech). Human CD34^+ cells were resuspended in expansion medium (5 × 10^4 cells/mL) before being aliquoted in 96-well plates (Costar, Corning Incorporated). Compounds, all with a final concentration of 200 nM, were dissolved in DMSO and added immediately in cell suspension after plating. The final concentration of DMSO in the control group was the same as in the compounds-treated group. Cells were cultured at 37 °C in 5% CO2. Based on the results of primary screening upon human cells and the results of ED50, we chose three compounds for further experiments. The expansion medium was changed to StemSpan SFEM (StemCell Technologies) supplemented with 100 ng/mL human stem cell factor (SCF, PeproTech), 100 ng/mL human thrombopoietin (TPO, PeproTech), 100 ng/mL human FMS-like trysine kinase 3 ligand (Flt3L, PeproTech) and 100 ng/mL human interleukin-6 (IL-6, PeproTech) for better expansion effect. The incubation condition was consistent with before.
Phenotypes analysis of cultured cells was performed on a BD FACS Array (Becton Dickinson Biosciences) using a combination of the following antibodies: APC anti-CD34 (BD Biosciences), PE anti-CD49f (BD Biosciences). Stained cells were washed once with PBS and then measured and analyzed on an FACS analyzer (FACSArray, BD Biosciences).

HSCs (CD34−LKS cells) = assay: single hematopoietic stem cell in vitro culture (nmEM colony) assay; format: cell-based, mouse; details: single CD34−LKS cell culture, 14 days, ratio of nmEM wells to DMSO control
Protocol: We biologically assessed the 22 putative p18SMI compounds for their ability to maintain HSCs stem cell characteristics, to be specific self-renewal and multi-lineage differentiation, using single cell cultures. […] Thus, we employed single HSC culture to assess p18SMI compounds’ effect upon HSCs. CD34^−LKS cells from C57BL/6 mice were individually deposited into a 96-well plate (one cell/well). The single cell was cultured for 14 days in 100 μL of serum-free medium (Gibco) containing 100 ng/mL of mouse stem cell factor (SCF), 10 ng/mL of mouse interleukin-3 (IL-3), 25 ng/mL of human thrombopoietin (TPO), 2 U/mL of human erythropoietin (EPO) and differing concentrations of the p18SMI compound. Cells were cultured 14 days for in vitro colony formation and colonies were then cytospined and analyzed by flow cytometry to test the subpopulation of cultured cells. Neutrophils (n), macrophages (m), erythroblasts (E) or megakaryocytes (M) were identified by the cell marker of Gr-1, Mac-1, Ter-119 and CD41 using flow cytometry. The wells from each group that generated all lineages (nmEM) were counted and the ratio to the control group (DMSO) was calculated.
Single CD34^-LKS cells from C57BL/6 mice were individually deposited into each well of a 96-well plate along with 100 μL of serum free medium (Gibco) containing 100 ng/mL of mouse SCF, 10 ng/mL of mouse IL-3, 25 ng/mL of human TPO, 2 U/mL of human EPO and p18SMI compounds (different dilutions). Cells were cultured in a 37 °C, 5% CO2 incubator for 14 days for ex vivo colony formation. Colonies were then cytospined and analyzed using flow cytometry. Neutrophils (n), macrophages (m), erythroblasts (E) or megakaryocytes (M) were identified based on their cell surface maker, Gr-1, Mac-1, Ter119 and CD41. Cells were measured on an FACS analyzer (FACSArray, BD Biosciences). […] The wells from each group that generated all lineages (nmEM) were counted. The ratio of p18SMI compound treatment group to the control group (DMSO-treated) was calculated and fitted to a curve to calculate the ED50 value using GraphPad Prism v6.0.

LT-HSCs = test system: LT-HSCs; parameters: method as in PMID 25692908; details: CDK inhibitor alone; cited from earlier work
HSCs (bone marrow MNCs) = assay: cobblestone area forming cells (CAFC) assay with limiting dilution assay (LDA); format: cell-based, mouse; details: day 35
Protocol: We also investigated whether the increased number of phenotypic SLAM^+LT-HSCs in short-term culture assays was correlated with an increase in functional LT-HSCs. Cobblestone area forming cells (CAFC) assay combined with limiting-dilution assays (LDA) were performed to measure the frequency of HSCs[19][22][30]. Compared with the control group (HSC frequency is 1 in 112,559 of the original plated cells), the frequency of HSC at day 35 (indicating the activity of hematopoietic reconstitution capacity) was 2.7-fold and 3.0-fold higher in the cultures treated with XIE18–6 (HSC frequency is 1 in 42,490 of the original plated cells) and compound 40 (HSC frequency is 1 in 37,524 of the original plated cells) (p < 0.001, Fig. 3C), respectively.
Freshly isolated bone marrow MNCs from mice, 6–8 weeks old, were plated in a 24-well plate with 1 mL Dexter’s medium at a density of 2 × 10^6 cells per mL in the absence or presence of different doses of the tested compounds. The culture was maintained at 33 °C with 5% CO2. The number of cobblestone areas (CAs) was counted weekly. The medium was also replaced with half fresh medium on a weekly basis. For the limiting dilution analysis (LDA) of the test cells, different limiting doses were plated on the irradiated stromal cells in 96-well plates containing 200 μL of M5300 medium (StemCell Technologies) supplemented with 10^−6 M hydrocortisone. Each group was done with 20 replicates well. Small-molecule compounds were added to the co-culture system at different doses. Half of the medium in each well was replaced with fresh medium containing the test compounds weekly. The existence of CA in each well was evaluated under an inverted microscope at weekly intervals for 5 weeks. Based on the Poisson distribution of the negative wells, the frequency of long-term initiating cells was calculated with L-Calc software (StemCell Technologies).

[2] = test system: LT-repopulating HSCs (CD34-LKS cells); assay: competitive bone marrow transplantation (cBMT) assay; format: in vivo, mouse
Protocol: Figure 3 Treatment of c-Kit-enriched murine BM cells with p18SMI compounds enhances HSC expansion. (A) The average number of total cells, HSPCs (Lin^−Sca1^+) and long term (LT)-HSCs (Lin^-Sca1^+CD48^−CD150^+) were analyzed by flow cytometry. (B) Single CD34^−LKS cell were deposited into each well of a 96-well plate, along with differentiation medium plus different concentrations of p18SMI compounds to show the dose-response effect of p18SMI compounds. (C) CAFC-LDA assay of cells treated with XIE18-6, compound 40 and DMSO to reveal the frequency of primitive HSCs. Above data (A–C) is mean ± SEM for all experiments of two or more and were performed in duplicate or triplicate. (D) Experimental design for transplantation (n = 10). CD34^-LKS cells were sorted into 96-well plates at 50 cells/well and cultured for 3 days with cytokine plus 20 μM of compounds or DMSO. Cells from each well were mixed with 2 × 10^6 freshly isolated bone marrow MNCs and co-transplanted by tail-vein injection into lethally irradiated CD45.2 recipient mice. 16 weeks after transplantation, bone marrow MNCs were stained to determine the engraftment level of donor cells. Bone marrow MNCs were also stained for lineage analysis. Multi-lineage differentiation was examined by flow cytometry. GM, T and B indicate lineages for myeloid, T and B cells, respectively. (E,F) The engraftment levels at 16 weeks after primary transplantation, and multi-lineage differentiation profile. Data is mean ± SEM for all experiments (***p < 0.001, **p < 0.01). TEXT PRINTED IN THE PICTURE: (E) #40: Engrafment%: *** 5.93X | (E) XIE18-6: Engrafment%: ** 3.01X DOUBTS OF THE COPYIST ABOUT THIS PICTURE: Panel E: 5.93X and 3.01X are printed on brackets running from #40 and from XIE18-6 to DMSO. No measure is printed beside them, so the axis label 'Engrafment%' was used as the measure.
The increased frequency and total number of functional LT-HSCs after treatment with p18SMI compounds was further confirmed by competitive bone marrow transplantation (cBMT) assay (Fig. 3D). CD34^-LKS cells were first sorted and cultured w/o p18SMI compound for 3 days. Then the cultured cells were gathered and co-transplanted into lethally irradiated mice with competitor cells. […] Moreover, the engraftment of the group treated with compound 40 was double of that of the group treated with XIE18–6.

Compound	expansion of human HSCs in concentration gradient assay [1]	ED50 (activity to promote the expansion of HSCs) (HSCs (CD34−LKS cells))	maintenance of HSCs population (LT-HSCs)	further results
COC(=O)[C@H](NS(=O)(=O)c1ccc(NC(C)=O)cc1)c1ccccc1 [Compound 22]	concentration related			
O=C(O)c1ccc(S(=O)(=O)NC2CCCCC2)cc1 [Compound 39, 4-(N-cyclohexylsulfamoyl)benzoic acid]		120 nM		
CC(=O)Nc1ccc(C(=O)Oc2ccc3c(C(C)C)cc(=O)oc3c2)cc1 [Compound 41, 4-Isopropyl-2-oxo-2H-chromen-7-yl 4-acetamidobenzoate]	concentration related			
CC(=O)c1c(C)c2cnc(Nc3ccc(N4CCNCC4)cn3)nc2n(C2CCCC2)c1=O [PD0332991]			could not maintain HSCs population	
CC(C)(C)c1cnc(CSc2cnc(NC(=O)C3CCNCC3)s2)o1 [SNS032]			could not maintain HSCs population	
CC(=O)Nc1ccc(S(=O)(=O)Oc2ccc3c(C)cc(=O)oc3c2)cc1 [XIE18-6]		105.5 nM		HSC frequency (1 in x of the original plated cells) (HSCs (bone marrow MNCs)): 42,490; frequency of HSC, fold higher than control group (HSCs (bone marrow MNCs)): 2.7 fold; multi-lineage differentiation profile (GM, T, B) compared with the control group ([2]; 16 weeks after transplantation): did not cause predominant growth of any specific lineages; increase in engraftment compared with the DMSO control group ([2]; CD34-LKS cells cultured 3 days with 20 μM compound, co-transplanted with competitor cells into lethally irradiated mice, bone marrow 16 weeks after transplantation): 3.01 fold; increase in engraftment compared with the uncultured group ([2]; cells cultured 3 days with 20 μM compound, 16 weeks after transplantation): 2.20 fold

— paper PMC4683533, “Discovery of novel INK4C small-molecule inhibitors to promote human and murine hematopoietic stem cell ex vivo expansion” (Scientific Reports, 2015)
